# According to patent US20240109917A1 (ACTELION PHARMACEUTICALS LTD, priority 2020, published 2024):
# pIC50: −log10 of the molar value.
# Target: His6-TEV-PDGFRβ (557-1016) (Homo sapiens (Human), UniProt P09619)
# Assay: PDGFRβ HTRF Assay
# Assay type: biochemical
# Details: read-out: PDGFR HTRF IC50
# Outline: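 HTRF KinEASE-TK readout (665/620 nm ratio) of TK-biotin substrate phosphorylation by His-tagged PDGFRβ kinase domain. Enzyme and inhibitor preincubated 30 min, then ATP/substrate added for 3 h at room temperature before 60 min EDTA quench/detection.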
# His6-TEV-PDGFRβ (557-1016), sequence (P09619 557-1016): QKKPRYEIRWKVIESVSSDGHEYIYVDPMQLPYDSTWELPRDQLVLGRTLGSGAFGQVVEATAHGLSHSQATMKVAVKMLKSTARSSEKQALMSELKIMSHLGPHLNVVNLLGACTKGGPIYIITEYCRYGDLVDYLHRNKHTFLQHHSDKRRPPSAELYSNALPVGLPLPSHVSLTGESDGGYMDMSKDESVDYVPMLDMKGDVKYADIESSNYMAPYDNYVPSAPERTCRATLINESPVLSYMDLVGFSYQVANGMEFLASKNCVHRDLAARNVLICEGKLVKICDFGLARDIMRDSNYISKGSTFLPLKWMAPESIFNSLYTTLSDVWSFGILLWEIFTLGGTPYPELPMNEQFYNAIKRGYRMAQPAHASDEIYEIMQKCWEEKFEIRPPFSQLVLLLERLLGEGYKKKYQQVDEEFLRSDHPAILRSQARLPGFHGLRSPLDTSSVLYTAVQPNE
row,Compound,pIC50
1,"Cc1ncc(NC(=O)C2CN(C(C)C)C2)cc1NC(=O)c1cnn2cc(-c3cnn4c3OCCC4)sc12 [Example 348, 2-(6,7-dihydro-5H-pyrazolo[5,1-b][1,3]oxazin-3-yl)-N-(5-(1-isopropylazetidine-3-carboxamido)-2-methylpyridin-3-yl)pyrazolo[5,1-b]thiazole-7-carboxamide]",9.40
2,"Cc1ncc(NC(=O)[C@@H]2CCCN2C)cc1NC(=O)c1cnn2cc(-c3cnn4c3OCCC4)sc12 [Example 349, (S)-2-(6,7-dihydro-5H-pyrazolo[5,1-b][1,3]oxazin-3-yl)-N-(2-methyl-5-(1-methylpyrrolidine-2-carboxamido)pyridin-3-yl)pyrazolo[5,1-b]thiazole-7-carboxamide]",9.22
3,"Cc1ncc(NC(=O)C2CCN(C(C)C)C2)cc1NC(=O)c1cnn2cc(-c3cnn4c3OCCC4)sc12 (centres unmarked) [Example 350, 2-(6,7-dihydro-5H-pyrazolo[5,1-b][1,3]oxazin-3-yl)-N-(5-(1-isopropylpyrrolidine-3-carboxamido)-2-methylpyridin-3-yl)pyrazolo[5,1-b]thiazole-7-carboxamide]",9.52
4,"Cc1ncc(NC(=O)C[C@H]2CCCN2C(C)C)cc1NC(=O)c1cnn2cc(-c3cnn4c3OCCC4)sc12 [Example 351, (R)-2-(6,7-dihydro-5H-pyrazolo[5,1-b][1,3]oxazin-3-yl)-N-(5-(2-(1-isopropylpyrrolidin-2-yl)acetamido)-2-methylpyridin-3-yl)pyrazolo[5,1-b]thiazole-7-carboxamide]",9.52
5,"Cc1ncc(NC(=O)CN2CCC[C@@H]2C)cc1NC(=O)c1cnn2cc(-c3ccnc(N4CCOCC4)c3)sc12 [Example 352, (S)—N-(2-methyl-5-(2-(2-methylpyrrolidin-1-yl)acetamido)pyridin-3-yl)-2-(2-morpholinopyridin-4-yl)pyrazolo[5,1-b]thiazole-7-carboxamide]",9.52
6,"Cc1ncc(NC(=O)CN2CCC23CCC3)cc1NC(=O)c1cnn2cc(-c3ccnc(N4CCOCC4)c3)sc12 [Example 353, N-(5-(2-(1-azaspiro[3.3]heptan-1-yl)acetamido)-2-methylpyridin-3-yl)-2-(2-morpholinopyridin-4-yl)pyrazolo[5,1-b]thiazole-7-carboxamide]",9.70
7,"Cc1ncc(NC(=O)C2CN(C(C)C)C2)cc1NC(=O)c1cnn2cc(-c3cn(C)nc3C)sc12 [Example 354, 2-(1,3-dimethyl-1H-pyrazol-4-yl)-N-(5-(1-isopropylazetidine-3-carboxamido)-2-methylpyridin-3-yl)pyrazolo[5,1-b]thiazole-7-carboxamide]",9.70
8,"Cc1ncc(NC(=O)C2CCN(C(C)C)C2)cc1NC(=O)c1cnn2cc(-c3cn(C)nc3C)sc12 (centres unmarked) [Example 355, 2-(1,3-dimethyl-1H-pyrazol-4-yl)-N-(5-(1-isopropylpyrrolidine-3-carboxamido)-2-methylpyridin-3-yl)pyrazolo[5,1-b]thiazole-7-carboxamide]",9.40
9,"Cc1ncc(NC(=O)C2CCN(C(C)C)C2)cc1NC(=O)c1cnn2cc(-c3cnn(C)c3C)sc12 (centres unmarked) [Example 356, 2-(1,5-dimethyl-1H-pyrazol-4-yl)-N-(5-(1-isopropylpyrrolidine-3-carboxamido)-2-methylpyridin-3-yl)pyrazolo[5,1-b]thiazole-7-carboxamide]",9.30
10,"Cc1ncc(NC(=O)C2CN(C(C)C)C2)cc1NC(=O)c1cnn2cc(-c3cnn(C)c3C)sc12 [Example 357, 2-(1,5-dimethyl-1H-pyrazol-4-yl)-N-(5-(1-isopropylazetidine-3-carboxamido)-2-methylpyridin-3-yl)pyrazolo[5,1-b]thiazole-7-carboxamide]",9.70
11,"Cc1ncc(NS(=O)(=O)CCN2CC3CCC2CC3)cc1NC(=O)c1cnn2cc(-c3cnn(C)c3)sc12 [Example 358, N-(5-((2-(2-azabicyclo[2.2.2]octan-2-yl)ethyl)sulfonamido)-2-methylpyridin-3-yl)-2-(1-methyl-1H-pyrazol-4-yl)pyrazolo[5,1-b]thiazole-7-carboxamide]",7.06
12,"Cc1ncc(S(=O)(=O)NCCN2CCCC2(C)C)cc1NC(=O)c1cnn2cc(-c3cnn(C)c3)sc12 [Example 359, N-(5-(N-(2-(2,2-dimethylpyrrolidin-1-yl)ethyl)sulfamoyl)-2-methylpyridin-3-yl)-2-(1-methyl-1H-pyrazol-4-yl)pyrazolo[5,1-b]thiazole-7-carboxamide]",7.79
13,"COCCCc1cn2ncc(C(=O)Nc3cc(C(=O)NCCN4CCCC4(C)C)cnc3C)c2s1 [Example 360, N-(5-((2-(2,2-dimethylpyrrolidin-1-yl)ethyl)carbamoyl)-2-methylpyridin-3-yl)-2-(3-methoxypropyl)pyrazolo[5,1-b]thiazole-7-carboxamide]",8.31
14,"COC/C=C/c1cn2ncc(C(=O)Nc3cc(C(=O)NCCN4CCCC4(C)C)cnc3C)c2s1 [Example 361, (E)-N-(5-((2-(2,2-dimethylpyrrolidin-1-yl)ethyl)carbamoyl)-2-methylpyridin-3-yl)-2-(3-methoxyprop-1-en-1-yl)pyrazolo[5,1-b]thiazole-7-carboxamide]",8.89
15,"Cc1ncc(C(=O)NCCN2CCCC2(C)C)cc1NC(=O)c1cnn2cc(-c3cnn(Cc4cc(OCc5ccccc5)no4)c3)sc12 [Example 362, 2-(1-((3-(benzyloxy)isoxazol-5-yl)methyl)-1H-pyrazol-4-yl)-N-(5-((2-(2,2-dimethylpyrrolidin-1-yl)ethyl)carbamoyl)-2-methylpyridin-3-yl)pyrazolo[5,1-b]thiazole-7-carboxamide]",9.30
16,"Cc1ncc(C(=O)NCCN2CCCC2(C)C)cc1NC(=O)c1cnn2cc(-c3cnn(Cc4cc(O)no4)c3)sc12 [Example 363, N-(5-((2-(2,2-dimethylpyrrolidin-1-yl)ethyl)carbamoyl)-2-methylpyridin-3-yl)-2-(1-((3-hydroxyisoxazol-5-yl)methyl)-1H-pyrazol-4-yl)pyrazolo[5,1-b]thiazole-7-carboxamide]",8.89
17,"Cc1ncc(NC(=O)CN2C[C@H](C)O[C@@H](C)C2)cc1NC(=O)c1cnn2cc(-c3cc[nH]c3)sc12 [Example 365, N-(5-(2-(2,6-trans-dimethylmorpholino)acetamido)-2-methylpyridin-3-yl)-2-(1H-pyrrol-3-yl)pyrazolo[5,1-b]thiazole-7-carboxamide]",9.52
18,"Cc1ncc(NC(=O)CN2CC3CCC(C2)O3)cc1NC(=O)c1cnn2cc(-c3cc[nH]c3)sc12 [Example 366, N-(5-(2-(8-oxa-3-azabicyclo[3.2.1]octan-3-yl)acetamido)-2-methylpyridin-3-yl)-2-(1H-pyrrol-3-yl)pyrazolo[5,1-b]thiazole-7-carboxamide]",9.52
19,"COc1ncccc1-c1cn2ncc(C(=O)Nc3cc(NC(=O)CN4CC(C)(C)C4)cnc3C)c2s1 [Example 369, N-(5-(2-(3,3-dimethylazetidin-1-yl)acetamido)-2-methylpyridin-3-yl)-2-(2-methoxypyridin-3-yl)pyrazolo[5,1-b]thiazole-7-carboxamide]",9.70
20,"Cc1ncc(NC(=O)CN2C[C@H](CO)OC(C)(C)C2)cc1NC(=O)c1cnn2cc(-c3cnn(C)c3)sc12 [Example 376, (R)—N-(5-(2-(6-(hydroxymethyl)-2,2-dimethylmorpholino)acetamido)-2-methylpyridin-3-yl)-2-(1-methyl-1H-pyrazol-4-yl)pyrazolo[5,1-b]thiazole-7-carboxamide]",9.10
